From PubChem BioAssay (NCI)
Where “and” joins values, the source holds several entries; their conditions need not be identical. Equal entries are not always repeated.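 Exposure lasted 48 hours, with cells grown in 96-well plates and compounds tested at five concentrations. Abbreviation: GI50, concentration required for 50% inhibition of growth. The concentration for full growth arrest is given as TGI.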

How the values were obtained:
Assay in all cases: NCI anticancer screen, dose series, 48 h
HT29 colon = test system: HT29 colon
U251 CNS = test system: U251 CNS
HOP-62 NSCLC = test system: HOP-62 NSCLC
ACHN renal = test system: ACHN renal
UACC-62 melanoma = test system: UACC-62 melanoma
OVCAR-8 ovarian = test system: OVCAR-8 ovarian
RXF 393 renal = test system: RXF 393 renal
CCRF-CEM leukemia = test system: CCRF-CEM leukemia
HCT-116 colon = test system: HCT-116 colon
BT-549 breast = test system: BT-549 breast
T-47D breast = test system: T-47D breast

Row | Structure (SMILES) | TGI (HT29 colon) [µM] | TGI (U251 CNS) [µM] | TGI (HOP-62 NSCLC) | TGI (ACHN renal) [µM] | TGI (UACC-62 melanoma) [µM] | TGI (OVCAR-8 ovarian) [µM] | TGI (RXF 393 renal) [µM] | TGI (CCRF-CEM leukemia) [µM] | TGI (HCT-116 colon) [µM] | TGI (BT-549 breast) [µM] | TGI (T-47D breast) | GI50 (T-47D breast) [µM]
1 | O=[N+]([O-])c1ccc(NC2OCC(O)C(O)C2O)cc1 (centres undefined) | > 100 | > 100 | > 100 µM | > 100 | > 100 | > 100 | > 100 | > 100 | – | – | – | –
2 | NC(=O)N/N=C(\Cc1nc2ccc(C(=O)c3ccccc3)cc2[nH]c1=O)C(=O)Nc1ccc(Br)cc1 | > 100 | > 100 | > 100 µM | > 100 | > 100 | > 100 | > 100 | > 100 | > 100 | – | – | –
3 | O=c1ccc2ccccc2o1 | > 100 | > 100 | > 100 µM | > 100 | > 100 | > 100 | > 100 | > 100 | > 100 | – | – | –
4 | Cc1cc(N(CCC#N)CCC#N)ccc1/C=C(\NC(=O)/C=C/c1ccccc1)NC(=O)Nc1ccc(Cl)cc1 | > 100 | 39.4 | – | > 100 | > 100 | > 100 | 52.6 | > 100 | > 100 | – | – | –
5 | O=c1c2cc(Br)ccc2oc2nc3n(c(=O)c12)CCCS3 | – | > 100 | > 100 µM | > 100 | > 100 | > 100 | > 100 | > 100 | > 100 | > 100 | > 100 µM | –
6 | OC(c1cccs1)c1cc2ccccc2s1 (centres undefined) | > 10 | > 10 | > 10 µM | > 10 | > 10 | > 10 | > 10 | > 10 | > 10 | – | > 10 µM | –
7 | CC(C)(C)c1cc(-c2ccc(-c3cc(C(C)(C)C)c(O)c(C(C)(C)C)c3)cc2)cc(C(C)(C)C)c1O | > 100 | > 100 | > 100 µM | > 100 | > 100 | > 100 | > 100 | – | > 100 | > 100 | > 100 µM | –
8 | OCCCSc1ccccc1SCCCO | > 100 | > 100 | > 100 µM | – | > 100 | > 100 | – | > 100 | > 100 | > 100 | > 100 µM | –
9 | O=S(=O)(O)CCS | > 100 | > 100 | > 100 µM | > 100 | > 100 | > 100 | > 100 | > 100 | > 100 | – | > 100 µM | –
10 | OCCSCCCSCCO | > 100 | > 100 | > 100 µM | – | > 100 | > 100 | – | > 100 | > 100 | > 100 | > 100 µM | –
11 | O=C(CSc1nnc(Cc2ccccc2)o1)Nc1ccc(Cl)cc1 | > 100 | > 100 | > 100 µM | > 100 | > 100 | > 100 | > 100 | > 100 | > 100 | – | – | –
12 | Oc1ccc(-c2nc3cc(C(F)(F)F)ccc3n2CC2CCCN3CCCCC23)cc1 (centres undefined) | 34.7 | 28 | 26 µM | 28.3 | – | 29.5 | 34.5 | 31.8 | 29.3 | – | 47.6 µM | –
13 | COc1ccc(C(=O)N2CCN(c3ccc4c(c3)OCC(=O)N4)CC2)cc1 | > 100 | > 100 | > 100 µM | > 100 | > 100 | > 100 | – | > 100 | > 100 | > 100 | > 100 µM | –
14 | COC1=CC(=O)C(O)=C(C[C@@]2(C)[C@@H]3CCC[C@H](COC(=O)CCCCCNC(=O)OC(C)(C)C)[C@@]3(C)CC[C@@H]2C)C1=O | > 10 | > 10 | > 10 µM | > 10 | – | > 10 | > 10 | 5.29 | > 10 | – | > 10 µM | –
15 | CCSc1nc2sc(C)c(C)c2c(=O)n1-c1ccc(C(=O)O)cc1 | > 100 | > 100 | > 100 µM | > 100 | > 100 | > 100 | > 100 | > 100 | 74.3 | – | – | –
16 | CCOC(=O)c1c(C)n(Cc2ccccc2)c2c1cc(O)c1[nH]c3c(c12)CCCC3 | 26.4 | 4.1 | 24.6 µM | 23.9 | 4.32 | 20.6 | – | 7.4 | 27.8 | 24.6 | – | –
17 | Cc1cc2c(c3oc(C(O)(CO)C4CO4)cc(=O)c13)C(=O)c1c(O)cccc1C2=O (centres undefined) | – | 0.00411 | 0.00989 µM and 0.00353 µM | 0.00524 | 0.00293 | – | 0.00254 | 0.000111 | – | 0.000438 | 0.00683 µM and 0.00232 µM and 0.0146 µM | 0.00375
18 | CN(C)C(=O)CC(C(=O)O)c1c[nH]c2ccccc12 (centres undefined) | > 100 | > 100 | > 100 µM | > 100 | > 100 | > 100 | > 100 | > 100 | > 100 | – | – | –
19 | CCOC(OCC)C(CC)[Se]c1ccccc1[N+](=O)[O-] (centres undefined) | 7.31 | 15.4 | > 74.2 µM | > 100 | > 56.2 | 49.9 | 5.59 | > 62.5 | 30.2 | – | > 100 µM | –
20 | COc1ccc(CNc2nc(NCc3ccc(OC)cc3)nc(Nc3ccccc3)n2)cc1 | 4.1 | > 100 | > 100 µM | > 100 | > 100 | > 100 | > 100 | – | > 100 | > 100 | > 100 µM | –
21 | Cn1c(C(C#N)c2cc(Cl)ncn2)nc2ccccc21 (centres undefined) | > 100 | > 100 | > 100 µM | > 100 | – | > 100 | > 100 | – | > 100 | > 100 | > 100 µM | –
22 | CC(=O)Oc1ccn2nc(C)c(Br)c2c1Br | 44.6 | > 100 | > 87 µM | 31.4 | 37.5 | > 83.7 | – | 47.1 | > 58.7 | 60.2 | > 76.8 µM | –
